Data published in US8552205B2, “Derivatives of 6,7-dihydro-5H-imidazo[1,2-alpha]imidazole-3-carboxylic acid amides” (Boehringer Ingelheim International GmbH, priority 2007, dated 2013).

What was measured:
[1] = system: IL-2 production in human whole blood stimulated with staphylococcal enterotoxin B; format: cell-based
[2] = biological target: T1, LFA-1 (CD18/CD11a) binding to ICAM-1 (Homo sapiens, UniProt P05107+P20701); assay: Assay to determine inhibition of LFA-1 binding to ICAM-1; conditions: immunopurified LFA-1 binding to plate-bound sICAM-1; read-out: LFA/ICAM1 Kd
T1 construct: LFA-1 is immunopurified using the TS2/4 antibody from a 20 g pellet of human JY or SKW3 cells; endogenous in cells; sICAM-1 made in house, secreted from transfected CHO DUX cells
From the text: Assay to Determine Inhibition of LFA-1 Binding to ICAM-1
This assay protocol is designed to study the direct antagonism, by a test compound, of the interaction of ICAM-1 with the Leukointegrin CD18/CD11a (LFA-1).
LFA-1 is immunopurified using the TS2/4 antibody from a 20 g pellet of human JY or SKW3 cells, utilizing a protocol previously described (Dustin, M. J.; et al., J. Immunol. 1992, 148, 2654-2660). The LFA-1 is purified from SKW3 lysates by immunoaffinity chromatography on TS2/4 LFA-1 mAb Sepharose and eluted at pH 11.5 in the presence of 2 mM MgCl2 and 1% octylglucoside. After collection and neutralization of fractions from the TS2/4 column, samples are pooled and precleared with Protein G agarose.
A soluble form of ICAM-1 is constructed, expressed, purified and characterized as previously described (Marlin, S.; et al., Nature, 1990, 344, 70-72 and see Arruda, A.; et al., Antimicrob. Agents Chemother. 1992, 36, 1186-1192). Briefly, isoleucine 454 which is located at the putative boundary between domain 5 of the ectodomain and the transmembrane domain, is changed to a stop codon using standard oligonucleotide-directed mutagenesis. This construction yields a molecule identical with the first 453 amino acids of membrane bound ICAM-1. An expression vector is created with a hamster dihydrofolate reductase gene, a neomycin-resistance marker, and the coding region of the sICAM-1 construct described above, along with the promoter, splice signals, and polyadenylation signal of the SV40 early region. The recombinant plasmid is transfected into CHO DUX cells using standard calcium phosphate methods. Cells are passaged in selective media (G418) and colonies secreting sICAM-1 are amplified using methotrexate. sICAM-1 is purified from serum-free media using traditional non-affinity chromatographic techniques, including ion exchange and size exclusion chromatography.
LFA-1 binding to ICAM-1 is monitored by first incubating sICAM-1 at 40 μg/mL in Dulbecco's phosphate buffered saline with calcium and magnesium, additional 2 mM MgCl2 and 0.1 mM PMSF (Diluting Buffer) in a 96-well plate for 30 min at room temperature. Plates are then blocked by the addition of 2% (w/v) bovine serum albumin in Diluting Buffer for 37° C. for 1 h. Blocking solution is removed from wells, and test compounds are diluted and then added followed by the addition of approximately 25 ng of immunoaffinity purified LFA-1. The LFA-1 is incubated in the presence of test compound and ICAM-1 at 37° C. for 1 h. Wells are washed 3 times with Diluting Buffer. The bound LFA-1 is detected by the addition of a polyclonal antibody directed against a peptide corresponding to the CD18 cytoplasmic tail in a 1:100 dilution with Diluting Buffer and 1% BSA and allowed to incubate for 45 min at 37° C. Wells are washed 3 times with Diluting Buffer and the bound polyclonal antibody is detected by the addition of a 1:4000 dilution of horse radish peroxidase conjugated to goat immunoglobulin directed against rabbit immunoglobulin. This reagent is allowed to incubate for 20 min at 37° C., wells are washed as above and the substrate for the horse radish peroxidase is added to each well to develop a quantitative colorimetric signal proportional to the amount of LFA-1 bound to sICAM-1. Soluble ICAM-1 (60 μg/mL) is used as a positive control for inhibition of the LFA-1/ICAM-1 interaction. The lack of the addition of LFA-1 to the binding assay is used as a background control for all samples. A dose-response curve is obtained for all test compounds.

T1 sequence (P20701 26-1170): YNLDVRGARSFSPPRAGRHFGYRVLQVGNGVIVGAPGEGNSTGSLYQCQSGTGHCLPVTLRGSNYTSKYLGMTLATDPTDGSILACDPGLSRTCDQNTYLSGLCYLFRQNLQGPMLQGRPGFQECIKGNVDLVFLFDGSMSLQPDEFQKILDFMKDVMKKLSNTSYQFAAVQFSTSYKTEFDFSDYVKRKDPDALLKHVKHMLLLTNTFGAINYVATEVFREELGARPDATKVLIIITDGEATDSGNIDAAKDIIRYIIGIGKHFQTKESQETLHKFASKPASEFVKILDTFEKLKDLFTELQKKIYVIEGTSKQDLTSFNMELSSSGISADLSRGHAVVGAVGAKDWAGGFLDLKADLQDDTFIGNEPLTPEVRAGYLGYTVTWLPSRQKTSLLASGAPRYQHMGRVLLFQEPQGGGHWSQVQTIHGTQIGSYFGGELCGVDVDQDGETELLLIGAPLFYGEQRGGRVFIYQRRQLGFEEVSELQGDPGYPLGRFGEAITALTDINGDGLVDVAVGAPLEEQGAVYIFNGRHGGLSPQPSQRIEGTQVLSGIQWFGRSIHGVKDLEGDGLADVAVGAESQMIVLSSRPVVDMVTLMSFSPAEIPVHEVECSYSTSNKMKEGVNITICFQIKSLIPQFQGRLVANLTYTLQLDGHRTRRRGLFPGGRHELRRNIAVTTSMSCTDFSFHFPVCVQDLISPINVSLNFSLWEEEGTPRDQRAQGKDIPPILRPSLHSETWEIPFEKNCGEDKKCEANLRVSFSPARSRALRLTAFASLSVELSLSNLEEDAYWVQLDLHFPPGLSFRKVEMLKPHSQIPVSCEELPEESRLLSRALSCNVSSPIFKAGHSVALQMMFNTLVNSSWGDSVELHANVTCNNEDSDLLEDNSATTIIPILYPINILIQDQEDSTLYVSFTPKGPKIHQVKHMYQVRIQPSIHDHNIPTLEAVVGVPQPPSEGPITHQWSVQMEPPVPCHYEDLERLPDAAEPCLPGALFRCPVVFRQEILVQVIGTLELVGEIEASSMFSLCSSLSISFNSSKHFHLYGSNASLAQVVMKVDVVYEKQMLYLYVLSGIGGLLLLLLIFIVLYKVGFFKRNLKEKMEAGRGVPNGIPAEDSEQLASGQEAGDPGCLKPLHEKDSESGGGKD
T1 sequence (P05107 23-769): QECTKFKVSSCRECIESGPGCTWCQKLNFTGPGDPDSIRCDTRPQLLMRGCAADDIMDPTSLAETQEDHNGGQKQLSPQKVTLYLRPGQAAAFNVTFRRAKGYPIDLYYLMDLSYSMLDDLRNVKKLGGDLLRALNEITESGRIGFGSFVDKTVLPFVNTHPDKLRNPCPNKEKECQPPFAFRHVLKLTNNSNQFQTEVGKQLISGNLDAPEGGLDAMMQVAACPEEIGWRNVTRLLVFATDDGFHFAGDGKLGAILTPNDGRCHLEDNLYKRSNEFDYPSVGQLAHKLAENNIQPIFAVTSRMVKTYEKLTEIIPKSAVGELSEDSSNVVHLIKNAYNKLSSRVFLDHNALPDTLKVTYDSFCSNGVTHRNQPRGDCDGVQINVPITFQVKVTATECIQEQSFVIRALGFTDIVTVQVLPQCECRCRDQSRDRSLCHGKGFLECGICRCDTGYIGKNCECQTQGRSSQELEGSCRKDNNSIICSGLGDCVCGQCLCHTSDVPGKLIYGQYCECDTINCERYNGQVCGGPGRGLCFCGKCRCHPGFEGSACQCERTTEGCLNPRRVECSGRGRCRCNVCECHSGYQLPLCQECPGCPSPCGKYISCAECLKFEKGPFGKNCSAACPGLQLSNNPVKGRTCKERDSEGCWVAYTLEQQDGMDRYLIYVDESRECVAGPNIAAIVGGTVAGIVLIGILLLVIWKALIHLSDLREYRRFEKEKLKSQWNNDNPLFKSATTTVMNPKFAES

Row | SMILES | WB [1] [×] | Kd [2] [µM]
1 | C[C@@]1(Cc2ccc(C#N)cc2)C(=O)N(c2cc(Cl)cc(Cl)c2)c2ncc(C(=O)NC3(C(=O)NC4(c5nnc(C6CC6)[nH]5)CC4)CC3)n21 [BI00659245, (R)-5-(4-Cyano-benzyl)-7-(3,5-dichloro-phenyl)-5-methyl-6-oxo-6,7-dihydro-5H-imidazo[1,2-a]imidazole-3-carboxylic acid {1-[1-(5-cyclopropyl-4H-1,2,4-triazol-3-yl)-cyclopropylcarbamoyl]-cyclopropyl}-amide] | 12 | 
2 | C[C@H](NC(=O)c1cnc2n1[C@](C)(Cc1ccc(C#N)cc1)C(=O)N2c1cc(Cl)cc(Cl)c1)C(=O)N[C@H](C)c1ccccn1 [Compound 2] |  | 0.0089
3 | C[C@@]1(Cc2ccc(C#N)cc2)C(=O)N(c2cc(Cl)cc(Cl)c2)c2ncc(C(=O)NC3(C(=O)N4CC[C@@H](c5noc(=O)[nH]5)C4)CC3)n21 [Compound 9] |  | 0.0046
4 | CC(=O)N[C@H]1CCN(C(=O)C2(NC(=O)c3cnc4n3[C@](C)(Cc3ccc(C#N)cc3)C(=O)N4c3cc(Cl)cc(Cl)c3)CC2)C1 [Compound 12] |  | 0.0054
5 | C[C@H](NC(=O)c1cnc2n1[C@](C)(Cc1ccc(C#N)cc1)C(=O)N2c1cc(Cl)cc(Cl)c1)C(=O)N1CCC[C@@H](C(N)=O)C1 [Compound 13] |  | 0.0024
6 | C[C@H](NC(=O)c1cnc2n1[C@](C)(Cc1ccc(C#N)cc1)C(=O)N2c1cc(Cl)c(F)c(Cl)c1)C(=O)NC1(c2ccccn2)CC1 [Compound 55] |  | 0.01
7 | C[C@@]1(Cc2ccc(C#N)cc2)C(=O)N(c2cc(Cl)c(F)c(Cl)c2)c2ncc(C(=O)NC3(C(=O)NC4(c5nccs5)CC4)CC3)n21 [Compound 60] |  | 0.013
8 | C[C@@]1(Cc2ccc(C#N)cc2)C(=O)N(c2cc(Cl)c(F)c(Cl)c2)c2ncc(C(=O)NC3(C(=O)NC4(c5nnc[nH]5)CC4)CC3)n21 [Compound 62] |  | 0.007
9 | C[C@@]1(Cc2ccc(C#N)cc2)C(=O)N(c2cc(Cl)cc(Cl)c2)c2ncc(C(=O)NC3(C(=O)NC4(C(N)=O)CC4)CC3)n21 [Compound 72] |  | 0.0084
10 | C[C@@]1(Cc2ccc(C#N)cc2)C(=O)N(c2cc(Cl)cc(Cl)c2)c2ncc(C(=O)NC3(C(=O)N[C@@H]4CC[C@H](C(N)=O)C4)CC3)n21 [Compound 105] |  | 0.024
11 | C[C@@H](NC(=O)c1cnc2n1[C@](C)(Cc1ccc(C#N)cc1)C(=O)N2c1cc(Cl)cc(Cl)c1)C(=O)NC1(C(=O)O)CC1 [Compound 107] |  | 0.028
12 | COC(=O)[C@H]1CC[C@@H](NC(=O)C2(NC(=O)c3cnc4n3[C@](C)(Cc3ccc(C#N)cc3)C(=O)N4c3cc(Cl)cc(Cl)c3)CC2)C1 [Compound 109] |  | 0.028
13 | C[C@H](NC(=O)c1cnc2n1[C@](C)(Cc1ccc(C#N)cc1)C(=O)N2c1cc(Cl)cc(Cl)c1)C(=O)NC1CCC[C@H]1C(N)=O (stereo partly shown) [Compound 114] |  | 0.032
14 | C[C@@H](NC(=O)c1cnc2n1[C@](C)(Cc1ccc(C#N)cc1)C(=O)N2c1cc(Cl)cc(Cl)c1)C(=O)Nc1ccnn1C [Compound 129] |  | 0.045
15 | CC(=O)N1CCC(NC(=O)C2(NC(=O)c3cnc4n3[C@](C)(Cc3ccc(C#N)cc3)C(=O)N4c3cc(Cl)cc(Cl)c3)CC2)CC1 [Compound 143] |  | 0.071
16 | C[C@@]1(Cc2ccc(C#N)cc2)C(=O)N(c2cc(Cl)cc(Cl)c2)c2ncc(C(=O)NC3(C(=O)N4CC[C@@H](O)C4)CC3)n21 [Compound 160] |  | 0.0059
17 | C[C@@]1(Cc2ccc(C#N)cc2)C(=O)N(c2cc(Cl)cc(Cl)c2)c2ncc(C(=O)NC3(C(=O)N4CCC(S(C)(=O)=O)C4)CC3)n21 (stereo partly shown) [Compound 185] |  | 0.024
18 | CCN(C(C)=O)C1CCN(C(=O)C2(NC(=O)c3cnc4n3[C@](C)(Cc3ccc(OC(F)(F)F)cc3)C(=O)N4c3cc(Cl)cc(Cl)c3)CC2)C1 (stereo partly shown) [Compound 187] |  | 0.022
19 | CC(=O)NC1CCCN(C(=O)C2(NC(=O)c3cnc4n3[C@](C)(Cc3ccc(C#N)cc3)C(=O)N4c3cc(Cl)cc(Cl)c3)CC2)C1 (stereo partly shown) [Compound 201] |  | 0.034
20 | C[C@H](NC(=O)c1cnc2n1[C@](C)(Cc1ccc(C#N)cc1)C(=O)N2c1cc(Cl)cc(Cl)c1)C(=O)N1CCC[C@@H]1CO [Compound 215] |  | 0.039
21 | C[C@H](NC(=O)c1cnc2n1[C@](C)(Cc1ccc(C#N)cc1)C(=O)N2c1cc(Cl)cc(Cl)c1)C(=O)NCCN1CCOCC1 [Compound 259] |  | 0.12
22 | C[C@@H](NC(=O)c1cnc2n1[C@](C)(Cc1ccc(C#N)cc1)C(=O)N2c1cc(Cl)cc(Cl)c1)C(=O)Nc1nccs1 [Compound 286] |  | 0.1
